Where two headings read alike, the source gives them in different places.

Three molecules from US20020006436A1, “USE OF A LIQUID CRYSTALLINE PHASE FOR DETERMINING THE DISTRIBUTION OF A CHEMICAL SUBSTANCE BETWEEN A HYDROPHOBIC AND A HYDROPHILIC ENVIRONMENT” (priority 1996, published 2002) can be followed below.

The nature of data set [1]: Distribution of lidocaine, cubic phase/water, simultaneous addition of all the water solution. The data set is classed as physicochemical. The settings on record: for [X]w: 24 h; for [X]w / Kbl/w: simultaneous addition. Here is the method: wherein [X]lipid/[X]water is the concentration of a substance X in the lipid and the water portion of the system, respectively. In order to be able to determine Kbl/w several methods can be applied. […] Kbl/w ={[…] which [X]w is the concentration of X in the water phase at equilibrium. […] Then 0.5 ml of the respective buffer solution was added to the vials.

Data set [2] can be described thus: Distribution of lidocaine, cubic phase/water, water solution added after the cubic phase has been formed. The data set is classed as physicochemical. To be noted: for [X]w: cubic phase formed 24 h at 37° C., then further 24 h.
The conditions of data set [3]: for [X]w: 72 h; for Kbl/w: equation 2, 72 h. From the text:
wherein [X]lipid/[X]water is the concentration of a substance X in the lipid and the water portion of the system, respectively. In order to be able to determine Kbl/w several methods can be applied. If vlipid is the lipid volume, v1 is the volume of water solution without the substance X, and v2 is the volume of water solution with the substance X in a concentration of [X]0 mol/liter, the distribution coefficient can be expressed as
Kbl/w ={v2([X]0−[X]w)/[X]w−v1}/vlipid (2),
in which [X]w is the concentration of X in the water phase at equilibrium. Equation 2 can be used if only the water phase and not the lipid phase is analyzed with reference to its content of X.
Glyceryl monooleate, 2 ml, was weighed into three vials, 6 ml of a water solution with 0.033, 0.067, or 0.10 mol NaCl per liter then being added to one of the three vials.
After 72 h the NaCl contents in the three vials were determined by means of conductometrical analysis of the water phases. In this example the constants were vlipid=2 ml, v1=0 ml, and v2=6 ml. The distribution coefficient Kbl/w was calculated by means of equation 2.

Data set [4] is described as follows: Distribution of clomethiazole between glyceryl monooleate cubic phase bilayer and water phase (water or citrate buffer). In kind it is physicochemical. To be noted: 120 h; for Kbl/w, eq. (4) / kbl/w, eq. (4): fw=0.4. Here is the method:
The distribution of a substance X between lipids and water in the system is depicted by the following distribution coefficient.
Kbilayer/water=Kbl/w=[X]lipid/[X]water (1),
If both the water phase and the cubic phase are analyzed with reference to their content of the substance X the following distribution coefficient can be determined Kcubic phase/water=KQ/w=[X]Q/[X]w (3), in which [X]Q is the concentration of X in the cubic phase. A relationship between Kbl/w and KQ/w can be derived if the volumetric portion of water in the cubic phase as well as the concentration of X in the water domain of the cubic phase are known. The former can be determined by means of X-ray diffraction. If it is assumed that the concentration of X in the water domain in the cubic phase is [X]w, i.e. the same as in the water phase, the following relationship can be obtained […]
Kbl/w={KQ/w−fw}/{1−fw} (4) in which fw is a volumetric portion of water in the cubic phase.
Clomethiazole (CMZ) is a drug which at a low pH exists in a charged state and at a high pH in a neutral stage. Glyceryl monooleate (Grindsted/Danisco A/S, Brabrand, Denmark), 0.74 ml, was added to each of six vials. Then 0.3 ml water was added to three of the vials, and 0.3 ml citrate buffer, pH 3.4, was added to the remaining three vials. The cubic phase was allowed to be formed overnight. Then 1.0 ml of solutions with different concentrations of CMZ were added to each of the vials.
The contents were analyzed after 120 h with reference to CMZ in the water phase as well as the cubic phase. In this example the constants were vlipid=0.74 ml, v1=0.3 ml, v2=1.0 ml, and fw=0.4. The distribution coefficients Kbl/w were calculated by means of the equations (2) and (4).

[5] abbreviates: citrate buffer pH 3.4, system I, [X]0 0.28 mg/ml.
Setting [6] is: citrate buffer pH 3.4, system II, [X]0 1.5 mg/ml.
Setting [7] is: citrate buffer pH 3.4, system III, [X]0 3.0 mg/ml.
Setting [8] is: water, system I, [X]0 0.28 mg/ml.
The mark [9] stands for this setting: water, system II, [X]0 1.5 mg/ml.
[10] abbreviates: water, system III, [X]0 3.0 mg/ml.

As to `CCN(CC)CC(=O)Nc1c(C)cccc1C` [Lidocaine], in data set [1] (charged form, from pH 4), the “Kbl/w(charged)” value came out at 0.7. Besides, the “[X]w” value in data set [1] (pH 4, [X]0 1.00 mg/ml) came to 0.68 mg/mL; in data set [1] (pH 7, [X]0 1.00 mg/ml) it was 0.21 mg/mL; in data set [1] (pH 10, [X]0 1.00 mg/ml), 0.073 mg/mL; in data set [2] (pH 4, [X]0 1.00 mg/ml) it was 0.66 mg/mL; in data set [2] (pH 7, [X]0 1.00 mg/ml), 0.22 mg/mL; in data set [2] (pH 10, [X]0 1.00 mg/ml), 0.073 mg/mL. Further, the Kbl/w in data set [1] (pH 4, equation 2, 24 h) was found to be 0.7; in data set [1] (pH 7, equation 2, 24 h), 8.9; in data set [1] (pH 10, equation 2, 24 h) it was 31.2; in data set [2] (pH 4, equation 2, solution added after cubic phase formed) it was 0.8; in data set [2] (pH 7, equation 2, solution added after cubic phase formed), 8.4; in data set [2] (pH 10, equation 2, solution added after cubic phase formed) it was 31.2. The “Kbl/w(uncharged)” value in data set [1] (uncharged form, from pH 10) worked out at 31.2.

On to `[Cl-].[Na+]` [NaCl], for which the “[X]w” value turned out to be 0.036 mol/L in data set [3] ([X]0 0.033 mol/liter), 0.071 mol/L in data set [3] ([X]0 0.067 mol/liter) and 0.106 mol/L in data set [3] ([X]0 0.100 mol/liter). The figures for the Kbl/w in data set [3] ([X]0 0.033 mol/liter), in data set [3] ([X]0 0.067 mol/liter) and in data set [3] ([X]0 0.100 mol/liter) were −0.25, −0.17 and −0.17, respectively.

Regarding `Cc1ncsc1CCCl` [Clomethiazole], in data set [4] (setting [5]), the “Kbl/w, eq. (2)” value was determined as 28.4; the “[X]w, concentration in the water phase at equilibrium” value (from here on “[X]w, concentration”) is 0.014 mg/mL; the “citrate, [X]Q, concentration in the cubic phase” value (shortened to “citrate, [X]Q, concentration”) worked out at 0.243 mg/mL; the “Kbl/w, eq. (4)” value was 28.2. Besides, in data set [4] (setting [6]), the “Kbl/w, eq. (2)” value is recorded as 32.0; the “[X]w, concentration” value came out at 0.067 mg/mL; the “citrate, [X]Q, concentration” value was 1.188 mg/mL; the “Kbl/w, eq. (4)” value is 28.9. Besides, in data set [4] (setting [7]), the “Kbl/w, eq. (2)” value is on record as 31.5; the “[X]w, concentration” value was determined as 0.136 mg/mL; the “citrate, [X]Q, concentration” value is 2.366 mg/mL; the “Kbl/w, eq. (4)” value was 28.3. In addition, in data set [4] (setting [8]), the “Kbl/w, eq. (2)” value came to 57.0; the “[X]Q, concentration in the cubic phase” value was 0.243 mg/mL; the “[X]w, concentration” value turned out to be 0.0072 mg/mL; the “kbl/w, eq. (4)” value turned out to be 55.6. In addition, in data set [4] (setting [9]), the “Kbl/w, eq. (2)” value was 57.9; the “[X]Q, concentration in the cubic phase” value stood at 1.286 mg/mL; the “[X]w, concentration” value worked out at 0.038 mg/mL; the “kbl/w, eq. (4)” value turned out to be 55.7. Further, in data set [4] (setting [10]), the “Kbl/w, eq. (2)” value was determined as 57.9; the “[X]Q, concentration in the cubic phase” value amounted to 2.463 mg/mL; the “[X]w, concentration” value was 0.076 mg/mL; the “kbl/w, eq. (4)” value was found to be 53.3.
